Results from article PMC9596378, “Discovery and molecular basis of subtype-selective cyclophilin inhibitors” (Nature Chemical Biology, 2022).
Like-named read-outs stand apart in the source and are kept apart here.

Experiments:
CypA = molecular target: T1, CypA (Homo sapiens, UniProt P62937); experiment: Chymotrypsin coupled prolyl-isomerase assay; format: biochemical; details: wild-type CypA; read-out: Wild-Type Cyclophilin Prolyl Isomerase Inhibition IC50 Values, CypA
T1 construct: PPIA (UniProtKB Entry P62937: residues 1–165); made in house; host or cells: E. coli BL21(DE3)
T1 sequence (P62937 whole entry, the tested form may be a part): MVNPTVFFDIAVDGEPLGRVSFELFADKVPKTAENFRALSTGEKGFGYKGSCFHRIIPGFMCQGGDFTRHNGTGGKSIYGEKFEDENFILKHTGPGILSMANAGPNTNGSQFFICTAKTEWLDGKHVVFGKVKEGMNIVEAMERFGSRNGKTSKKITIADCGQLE
Summary of the method: (§1)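 5 nM Cyp, HEPES pH 7.3/NaCl/Triton buffer, 2–3 °C; cpd 5 min, chymotrypsin 25 µM 5 min, then Suc-AAPF-AMC 5 µM in LiCl/TFE. Kinetic fluorescence 330 s. Per-well rate constants, normalized, IC50 from nonlinear fit.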

CypC = molecular target: T2, CypC (Homo sapiens, UniProt P45877); experiment: Chymotrypsin coupled prolyl-isomerase assay; format: biochemical
T2 construct: PPIC (UniProtKB Entry P45877: residues 24–212); host or cells: E. coli BL21(DE3)
T2 sequence (P45877 24-212): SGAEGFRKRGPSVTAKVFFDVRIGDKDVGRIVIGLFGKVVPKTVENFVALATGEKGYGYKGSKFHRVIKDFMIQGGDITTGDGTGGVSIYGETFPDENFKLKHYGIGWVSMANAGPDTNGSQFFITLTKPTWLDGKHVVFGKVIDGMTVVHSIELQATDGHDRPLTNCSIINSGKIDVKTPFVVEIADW
Summary of the method: as §1

CypE = molecular target: T3, CypE (Homo sapiens, UniProt Q9UNP9); experiment: Chymotrypsin coupled prolyl-isomerase assay; format: biochemical; details: wild-type CypE; read-out: Wild-Type Cyclophilin Prolyl Isomerase Inhibition IC50 Values, CypE
T3 construct: PPIE (UniProtKB Entry Q9UNP9: residues 131–301); host or cells: E. coli BL21(DE3)
T3 sequence (Q9UNP9 131-301): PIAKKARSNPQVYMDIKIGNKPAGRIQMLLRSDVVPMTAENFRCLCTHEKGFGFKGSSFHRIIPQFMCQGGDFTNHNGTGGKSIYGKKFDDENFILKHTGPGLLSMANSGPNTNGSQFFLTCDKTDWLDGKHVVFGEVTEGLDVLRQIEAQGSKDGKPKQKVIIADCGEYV
Summary of the method: as §1

CypG = molecular target: T4, CypG (Homo sapiens, UniProt Q13427); experiment: Chymotrypsin coupled prolyl-isomerase assay; format: biochemical
T4 construct: PPIG (UniProtKB Entry Q13427: residues 1–179); His6 with thrombin site (pET28a LIC leader) (N); host or cells: E. coli BL21(DE3)
T4 sequence (Q13427 1-179): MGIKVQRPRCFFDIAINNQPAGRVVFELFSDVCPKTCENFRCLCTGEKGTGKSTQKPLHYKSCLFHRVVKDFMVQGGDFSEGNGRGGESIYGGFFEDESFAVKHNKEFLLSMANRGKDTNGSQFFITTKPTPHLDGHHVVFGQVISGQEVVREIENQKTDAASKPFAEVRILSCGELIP
Summary of the method: as §1

CypH = molecular target: T5, CypH (Homo sapiens, UniProt O43447); experiment: Chymotrypsin coupled prolyl-isomerase assay; format: biochemical
T5 construct: PPIH (UniProtKB Entry O43447: residues 1–177); His6 with TEV site (2BT vector leader) (N); made in house; host or cells: E. coli BL21(DE3)
T5 sequence (O43447 whole entry, the tested form may be a part): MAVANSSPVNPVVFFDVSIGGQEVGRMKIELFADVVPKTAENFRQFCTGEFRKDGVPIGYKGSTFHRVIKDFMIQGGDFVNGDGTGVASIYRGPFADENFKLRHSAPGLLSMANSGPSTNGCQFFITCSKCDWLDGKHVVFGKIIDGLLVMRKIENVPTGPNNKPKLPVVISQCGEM
Summary of the method: as §1

HeLa cells = experiment: Fluorescence microscopy of Cy5-conjugated compounds; format: cell-based, human
[1] = wild-type CypC, read-out: Wild-Type Cyclophilin Prolyl Isomerase Inhibition IC50 Values, CypC
[2] = wild-type CypG, read-out: Wild-Type Cyclophilin Prolyl Isomerase Inhibition IC50 Values, CypG
[3] = wild-type CypH, read-out: Wild-Type Cyclophilin Prolyl Isomerase Inhibition IC50 Values, CypH

IC50 (CypA) | IC50 (CypC; [1]) | IC50 (CypE) | IC50 (CypG; [2]) | IC50 (CypH; [3]) | IC50 (CypC; prolyl-isomerase inhibition, 5 nM cyclophilin, read-out: IC50 CypC) | IC50 (CypG; prolyl-isomerase inhibition, 5 nM cyclophilin, read-out: IC50 CypG) | IC50 (CypH; prolyl-isomerase inhibition, 5 nM cyclophilin, read-out: IC50 CypH) | Structure (SMILES) | plasma membrane permeability / mitochondrial localization (in words) (HeLa cells)
0.3 µM | > 2 µM | 1.1 µM | > 2 µM | > 2 µM | – | – | – | C[N+]1=C(C=CC=CC=C2N(CCCCCC(=O)NCCNC(=O)C3CCNC(=O)C=CC(=O)N4CCCC(Cc5ccccc5)(C4)C(=O)NC(Cc4ccc(-c5ccc(C(CC(=O)O)CC(=O)O)cc5)cc4)C(=O)NCc4ccccc4CC(=O)N3)c3ccccc3C2(C)C)C(C)(C)c2ccccc21 (stereo not drawn) [Compound B53-Cy5] | poor and did not observe efficient plasma membrane permeability
0.19 µM | 5 µM | 1 µM | 10 µM | 10 µM | ~5 µM | ~10 µM | ~10 µM | C[N+]1=C(C=CC=CC=C2N(CCCCCC(=O)NCCNC(=O)C3CCNC(=O)C=CC(=O)N4CCCC(Cc5ccccc5)(C4)C(=O)NC(Cc4ccc(-c5ccc(CC(C(=O)O)C(=O)O)cc5)cc4)C(=O)NCc4ccccc4CC(=O)N3)c3ccccc3C2(C)C)C(C)(C)c2ccccc21 (stereo not drawn) [Compound B52-Cy5] | poor and did not observe efficient plasma membrane permeability
> 10 µM | > 10 µM | > 10 µM | > 10 µM | > 10 µM | – | – | – | C[N+]1=C(C=CC=CC=C2N(CCCCCC(=O)NCCNC(=O)C3CCNC(=O)C=CC(=O)N4CCCC(Cc5ccccc5)(C4)C(=O)NC(Cc4ccc(-c5ccc(C(CC(=O)O)CC(=O)O)cc5)cc4)C(=O)NCc4ccccc4CC(=O)N3)c3ccccc3C2(C)C)C(C)(C)c2ccccc21 (stereo not drawn) [*B53-Cy5] | poor
